{"source": "patent US11565003B2", "about": "“Mechanical opening of lipid bilayers by molecular nanomachines” (William Marsh Rice University, priority 2016, dated 2023)", "key": {"[1]": {"test_system": "PC-3 cells", "assay": "Two-photon near-infra red activation, PI dye entry, PC-3", "format": "cell-based, human", "conditions": "PC-3, 1 μM, PI 200 nM", "method": "Two-photon microscopy studies of NIH 3T3 cells were executed on a Nikon E600 upright confocal microscope coupled to a tuneable (710-950 nm Coherent MaiTai) multiphoton source operating at (20%) 240 mW power using a 166 lps scan speed and 128×128 pixel frame resolution for MP-illumination. Images (512×512 pixel, 166 lps) were recorded using a 543 nm (1 mW HeNe) laser combined with a 560 nm long-pass filter to record PI (200 nM) fluorescence and follow the onset of induced necrosis.\nTwo photon live cell microscopy studies were also executed on a Nikon E600 upright confocal microscope coupled to a tuneable (710-950 nm Coherent MaiTai) multiphoton source operating at (19.8%) 240 mW power at 720 nm using 166 lines/sec scan speed and 128×128 pixel frame resolution for MP-illumination. An oil immersion Nikon IR objective (×60/1.4 NA) was used. Images (512×512 pixel, 166 l/s) were recorded using a 543 nm (1 mW HeNe) laser combined with a 570 nm long-pass filter to record PI dyes (200 nM). Fluorescence was measured as 2 frame averaged images in order to follow the onset of induced necrosis. Necrosis times have been assigned to detectable PI signals in the nucleolus."}, "[2]": {"test_system": "NIH 3T3 cells", "assay": "UV-activated nanomechanical necrosis, live cell confocal microscopy, NIH 3T3", "format": "cell-based, mouse", "conditions": "for Time of Full Necrosis / Time of Initial Necrosis / % acceleration for full necrosis: 355 nm UV; for % acceleration for full necrosis: versus UV upon blank cells", "method": "(§1) Following the synthetic bilipid vesicle experiments, nanomechanical action upon live cells was studied using confocal microscopy aided by a super-resolution technique called Phase Modulation Nanoscopy. Applicants used two experimental methods. In the first method (Method A), the molecular motors were loaded into the cell media and the imaging was initiated within 5 minutes to 24 hours. In the second method, (Method B), the molecular motors were loaded into the cell media, incubated for 30 minutes to 24 hours, and then washed three times with fresh molecular motor-free media before imaging. […]\n(§2) Microscopy cells were seeded in untreated iBibi 100 μL live cell channels and allowed to grow to 40% to 60% confluence, at 37° C. in 5% CO2. At this stage, the medium was replaced and cells were treated with the studied nanomachines and co-stains as appropriate, with 0.1% DMSO (as detailed above) present in the final imaging medium. For live cell imaging, DMEM/F12 media (10% FBS) lacking phenol red was used from this point onwards. Following incubation, where Method B was used, the channels were washed with live cell imaging media and imaged using a purpose build incubator housing the microscope maintaining 37° C., 5% CO2 and 10% humidity.\n(§3) All live cell imaging experiments used either NIH 3T3 mouse skin fibroblast cells, PC-3 cells, a grade 3 human prostate adenocarcinoma, or Chinese hamster ovary cells (CHO). These are all well-studied cell lines with discrete morphological compositions. Each molecular machine was used as a stock solution at 0.10 to 1.00 μM with total dimethyl sulfoxide (DMSO) concentrations not exceeding 0.1% in the final cell media in order to avoid unwanted cell membrane permeabilization, the DMSO being required for solubility of the organic nanomachines. All loading experiments are carried out in a light-suppressed manner and the possibility of induced or accelerated uptake due to interaction between the molecular motors and the applied co-stain has been eliminated using a series of individual and reversed loading experiments.\n(§4) All experimental imaging parameters (i.e., laser beam size, confocal pinhole size, laser intensity, line scanning speed, scanning area (field of view, FOV), and line averaging sequences) were kept constant throughout the experiments. The accuracy and errors associated with the establishment of accelerated necrosis are determined based on one dual channel imaging sequence, which takes 15 seconds in total. This imaging sequence has been carefully established using untreated live cells.\n(§5) Steady state fluorescence images were recorded using a PhMoNa enhanced Leica SP5 II LSCM equipped with a HCX PL APO 63×/1.40 NA LambdaBlue Oil immersion objective. As an initial control experiment to establish the UV-induced cell toxicity threshold, while mitigating voxel exposure and ensuring sufficient laser dwell time, an imaging sequence has been established to monitor cell morphological and physiological changes as a function of time. All experiments used cell-line-determined culture medium containing 0.1% DMSO.\n(§6) The applied 100 Hz detection sequence was based on a bidirectional dual-channel continuous scanning method where a minimalistic non-damaging visible laser light (458 nm, 0.2 mW) is used in conjunction with the above detailed UV exposure. This is set as a 2 line/scan accumulation parallel acquisition sequence that is recorded as a function of time. Studied channels correspond to transmission images and UV-induced mitochondrial auto-fluorescence detected at 460 to 550 nm. Applicants further confirmed that the effectiveness of monitoring the UV-activated nanomechanical action on live cells using a conventional CW mercury-arc excitation source equipped with an epi-fluorescence setup consisting of a Zeiss Axiovert 200M inverted microscope, as discussed in FIGS. 18A-C. […]"}, "[3]": {"test_system": "CHO cells", "assay": "UV-activated nanomechanical necrosis, live cell confocal microscopy, CHO", "format": "cell-based, Chinese hamster", "conditions": "355 nm UV; for % acceleration for full necrosis: versus UV upon blank cells", "method": "as §1, §2, §3, §4, §5, §6"}, "[4]": {"test_system": "PC-3 cells", "assay": "UV-activated nanomechanical necrosis, live cell confocal microscopy, PC-3", "format": "cell-based, human", "conditions": "for Time of Full Necrosis / Time of Initial Necrosis / % acceleration for full necrosis: 355 nm UV; for % acceleration for full necrosis: versus UV upon blank cells", "method": "Following the synthetic bilipid vesicle experiments, nanomechanical action upon live cells was studied using confocal microscopy aided by a super-resolution technique called Phase Modulation Nanoscopy. Applicants used two experimental methods. In the first method (Method A), the molecular motors were loaded into the cell media and the imaging was initiated within 5 minutes to 24 hours. In the second method, (Method B), the molecular motors were loaded into the cell media, incubated for 30 minutes to 24 hours, and then washed three times with fresh molecular motor-free media before imaging.\nNext, Applicants used the smaller nanomachine, 3. Initial control experiments (blank) were performed without nanomachines being present. UV-induced (355 nm) PC-3 necrosis is not initiated until approximately scan 20 (corresponding to 300 second continuous scanning UV exposure, 400 nJ/voxel total dwell time), characterized by massive disruption and rupture of the mitochondrial network and subsequent well-pronounced auto-fluorescent signal detectable in the nucleoli and nucleus wall (FIG. 7A). This is observable by the nucleoli membrane permeabilization and DNA damage at the onset of necrosis. The UV-induced necrosis reaches final stages at approximately scan 40 (corresponding to 600 seconds) that is consistent with characteristic extracellular membrane rupture and homogenous cytosolic auto-fluorescence, indicating loss of cellular organelle boundaries.\nas §2, §3, §4\nas §5, with “DMSO. […]” for “DMSO.”"}, "[5]": {"conditions": "NIH 3T3, Method B (washed three times)"}, "[6]": {"conditions": "PC-3, Method B (washed three times)"}}, "note": "Starred links: 1 amine or outer side, 2 acyl side, 3 side chain; linkers in the order of their positions; H or OH if unused. Positions of bridges follow the written chain, without caps; N, C: chain ends. Residues, ends and D or L forms follow the SMILES beside them. Chains are numbered I, II in the order given. X2 = C[C@@H]1Cc2ccc3ccccc3c2C1=C1c2cc(C#CCCn3cc(C(=O)[*:1])nn3)ccc2Sc2ccc(C#CCCn3cc(C(=O)[*:2])nn3)cc21", "data": [{"smiles": "CC(C)[C@H](NC(=O)[C@H](CCCNC(=N)N)NC(=O)[C@@H](NC(=O)[C@H](CC(N)=O)NC(=O)[C@H](CO)NC(=O)c1cn(CCC#Cc2ccc3c(c2)C(=C2c4c(ccc5ccccc45)C[C@H]2C)c2cc(C#CCCn4cc(C(=O)N[C@@H](CO)C(=O)N[C@@H](CC(N)=O)C(=O)N[C@H](C(=O)N[C@@H](CCCNC(=N)N)C(=O)N[C@H](C(=O)N[C@@H](C)C(=O)N5CCC[C@H]5C(=O)O)C(C)C)[C@@H](C)O)nn4)ccc2S3)nn1)[C@@H](C)O)C(=O)N[C@@H](C)C(=O)N1CCC[C@H]1C(=O)O", "note": "[Compound 9] (I: SNTRVAP-OH / II: SNTRVAP-OH; linker I:N-II:N via X2)", "values": [{"measurement": "PI dye entry upon two-photon near-infra red illumination (in words)", "setting": "[1]", "result": "resulting in Propidium Iodide (PI) dyes entering"}, {"measurement": "Time of Full Necrosis", "setting": "[2]; NIH 3T3, Method A (no washing)", "result": 570, "unit": "s"}, {"measurement": "Time of Initial Necrosis", "setting": "[2]; NIH 3T3, Method A (no washing)", "result": 300, "unit": "s"}, {"measurement": "% acceleration for full necrosis", "setting": "[2]; NIH 3T3, Method A", "result": 5, "unit": "%"}, {"measurement": "Time of Full Necrosis", "setting": "[2]; [5]", "result": 600, "unit": "s"}, {"measurement": "Time of Initial Necrosis", "setting": "[2]; [5]", "result": 300, "unit": "s"}, {"measurement": "% acceleration for full necrosis", "setting": "[2]; NIH 3T3, Method B", "result": 0, "unit": "%"}, {"measurement": "UV-accelerated nanomechanical necrosis after 24 hours incubation (in words)", "setting": "[2]; NIH 3T3, incubated 24 hours", "result": "no change in rates"}, {"measurement": "Time of Full Necrosis", "setting": "[3]; Method A (no washing)", "result": 585, "unit": "s"}, {"measurement": "Time of Initial Necrosis", "setting": "[3]; Method A (no washing)", "result": 300, "unit": "s"}, {"measurement": "% acceleration for full necrosis", "setting": "[3]; Method A", "result": 2.5, "unit": "%"}, {"measurement": "Time of Full Necrosis", "setting": "[3]; Method B (washed three times)", "result": 570, "unit": "s"}, {"measurement": "Time of Initial Necrosis", "setting": "[3]; Method B (washed three times)", "result": 285, "unit": "s"}, {"measurement": "% acceleration for full necrosis", "setting": "[3]; Method B", "result": 5, "unit": "%"}, {"measurement": "selectivity for targeted PC-3 cells over non-targeted control cells (in words)", "setting": "[4]; NIH 3T3 and CHO as non-targeted controls", "result": "selectively target the PC-3 cell line over CHO cells"}, {"measurement": "Time of Full Necrosis", "setting": "[4]; PC-3, Method A (no washing)", "result": 360, "unit": "s"}, {"measurement": "Time of Initial Necrosis", "setting": "[4]; PC-3, Method A (no washing)", "result": 150, "unit": "s"}, {"measurement": "% acceleration for full necrosis", "setting": "[4]; PC-3, Method A", "result": 40, "unit": "%"}, {"measurement": "Time of Full Necrosis", "setting": "[4]; [6]", "result": 390, "unit": "s"}, {"measurement": "Time of Initial Necrosis", "setting": "[4]; [6]", "result": 180, "unit": "s"}, {"measurement": "% acceleration for full necrosis", "setting": "[4]; PC-3, Method B", "result": 35, "unit": "%"}, {"measurement": "accelerated necrosis upon UV-activation after washing and further 24 hours in rotor free media", "setting": "[4]; PC-3, incubated 30 minutes to 4 hours, washed three times, 24 hours rotor free media", "result": 25, "unit": "%"}]}]}
